The nature of data set [1]: Crystal slurrying competition experiment of crystal forms. It is filed as physicochemical. As to conditions: room temperature; for relative stability of crystal forms from competition experiments: conclusion in words. How it is done:
6.2. Competitive experiments of crystal forms I, II and III of compound 1 were performed at room temperature to investigate the stability of the crystal forms in isopropyl acetate and a water/acetonitrile (v/v=1:1) solvent, and Competitive experiments of the crystal forms I and II of compound 3 were performed at room temperature to investigate the stability of the crystal forms in an ethanol/water (v/v=1:1) solvent and an acetone/water (v/v=1:1) solvent.

The nature of data set [2]: Solubility in water at 25° C. Type of data set: physicochemical. As to the method: 7. Solubility Data in Water at 25° C.
Data set [3] in a line: Pharmacokinetic test of dogs. Type of data set: in vivo. As to conditions: Beagle dogs; for Having bioavailability or not / AUC(0-t): i.g. (10 mg/kg); for AUC(0-t): male, dog, po, plasma. How it is done: Experimental objective: in this experiment, a single dose of each test compound was administered to Beagle dogs intravenously and intragastrically, the concentrations of the test compounds in plasma of dogs were measured, and the pharmacokinetic characteristics and bioavailability of the test compounds in dogs were evaluated.
Experimental animal: male Beagle dogs (about 8-11 kg, […], 6 dogs/compound), purchased from Beijing Marshall Biotechnology Co. Ltd.
The animals were fasted but with water available for 14 to 18 hours one day before administration, and were fed 4 hours after administration.
Sampling: before and after administration, 1.0 ml of blood was taken from jugular veins, and placed in an EDTAK2 centrifuge tube. Centrifugation was carried out at 5000 rpm at 4° C. for 10 m, and the plasma was collected.
Time points for plasma collection in G1& G2 groups: 0, 5 min, 15 min, 30 mi 1 h, 2 h, 4 h, 6 h, 8 h, 10 h, […] and 24 h.
Before analysis and detection, all samples were stored at −80° C. The samples were detected by using HPLC-MS/MS.

A short description of data set [4]: Chemical stability at high temperature (40° C.) and high humidity (RH 92.5%), purity by HPLC. Type of data set: physicochemical. As to conditions: for Purity by HPLC, 0 day: 0 day (initial); for chemical stability: 40° C. and RH 92.5%, purity by HPLC, conclusion in words; for Purity by HPLC, 92.5% RH 30 days: high humidity 92.5% RH; for Purity by HPLC, 40° C. 30 days: high temperature 40° C. As to the method:
Samples were taken and tested at high temperature (40° C.) and under high humidity (RH 92.5%) respectively. The purity (represented by a percentage) was detected by HPLC.
With regard to methods for preparing test solutions and conditions for detecting purity by HPLC, reference was made to Tables 13, 14 and 15.

Data set [5] in a line: Stability of crystal form of compound 1 and compound 3 (XRD). Type of data set: physicochemical. As to conditions: conclusion in words. An excerpt: 6.1. Stability of crystal form of compound 1 and compound 3.
[6] abbreviates: listed as Crystal form III of compound 1.

The term solubility denotes the concentration that dissolves in the medium under given conditions. Read a low solubility as little dissolved substance. As usually defined, the AUC(0-t) is exposure summed from dosing to a finite time, without extrapolation to infinity. Higher therefore signals more exposure.

On to `Nc1ncnc2c1c(-c1ccc(Oc3ccccc3)cc1)nn2C1CCN(C2CN(C3CN(c4ccc5c(c4)C(=O)N(C4CCC(=O)NC4=O)C5=O)C3)C2)CC1.O=C(O)/C=C\C(=O)O.O=C(O)/C=C\C(=O)O` (centres unmarked), for which the “Experimental XRD result after crystal slurrying competition” value is “Crystal form I” in data set [1] (acetone/water (v/v = 1:1), 3 days) and “Crystal form I” in data set [1] (ethanol/water (v/v = 1:1), 3 days).
For `Nc1ncnc2c1c(-c1ccc(Oc3ccccc3)cc1)nn2C1CCN(C2CN(C3CN(c4ccc5c(c4)C(=O)N(C4CCC(=O)NC4=O)C5=O)C3)C2)CC1` (centres unmarked) [5-[3-[3-[4-[4-amino-3-(4-phenoxyphenyl)pyrazolo[3,4-d]pyrimidin-1-yl]-1-piperidyl]azetidin-1-yl]azetidin-1-yl]-2-(2,6-dioxo-3-piperidyl)isoindoline-1,3-dione], the “Experimental XRD result after crystal slurrying competition” value is listed as “Crystal form III” in data set [1] (isopropyl acetate, 2 days) and “Crystal form III” in data set [1] (water/acetonitrile (v/v = 1:1), 2 days).
Consider `Nc1ncnc2c1c(-c1ccc(Oc3ccccc3)cc1)nn2C1CCN(C2CN(C3CN(c4ccc5c(c4)C(=O)N(C4CCC(=O)NC4=O)C5=O)C3)C2)CC1` (centres unmarked) [Compound 1, 5-[3-[3-[4-[4-amino-3-(4-phenoxyphenyl)pyrazolo[3,4-d]pyrimidin-1-yl]-1-piperidyl]azetidin-1-yl]azetidin-1-yl]-2-(2,6-dioxo-3-piperidyl)isoindoline-1,3-dione], for which the solubility in water entry in data set [2] (conclusion in words) was “a certain level of solubility”. Besides, the “oral bioavailability in dogs” value in data set [3] (intragastric vs intravenous, conclusion in words) is reported as “a certain level of oral bioavailability”.
Regarding `Nc1ncnc2c1c(-c1ccc(Oc3ccccc3)cc1)nn2C1CCN(C2CN(C3CN(c4ccc5c(c4)C(=O)N(C4CCC(=O)NC4=O)C5=O)C3)C2)CC1.O=C(O)C[C@H](O)C(=O)O` [Compound 4, 5-[3-[3-[4-[4-amino-3-(4-phenoxyphenyl)pyrazolo[3,4-d]pyrimidin-1-yl]-1-piperidyl]azetidin-1-yl]azetidin-1-yl]-2-(2,6-dioxo-3-piperidyl)isoindoline-1,3-dione L-malate], in data set [2], the “improvement of solubility as compared with compound 1” value was “more than 15 times” and the solubility was found to be 158 µg/mL.
Take `Nc1ncnc2c1c(-c1ccc(Oc3ccccc3)cc1)nn2C1CCN(C2CN(C3CN(c4ccc5c(c4)C(=O)N(C4CCC(=O)NC4=O)C5=O)C3)C2)CC1.O=C(O)CC(O)(CC(=O)O)C(=O)O` (centres unmarked) [Compound 5, 5-[3-[3-[4-[4-amino-3-(4-phenoxyphenyl)pyrazolo[3,4-d]pyrimidin-1-yl]-1-piperidyl]azetidin-1-yl]azetidin-1-yl]-2-(2,6-dioxo-3-piperidyl)isoindoline-1,3-dione citrate]: in data set [4], the “Purity by HPLC, 0 day” value is 98.44%; the chemical stability entry is “relatively good chemical stability”; the “Purity by HPLC, 92.5% RH 30 days” value is recorded as 98.05%. Besides, in data set [2], the “improvement of solubility as compared with compound 1” value is on record as “more than 15 times” and the solubility was 166 µg/mL. Further, in data set [3], the “Having bioavailability or not” value is given as “Yes”, the “increase of oral exposure amount as compared with compound 1” value (“increase of oral exposure amount” below) is recorded as “more than 2 times” and the AUC(0-t) was determined as 59.5 ± 21 ng·h/mL.
In the case of `Nc1ncnc2c1c(-c1ccc(Oc3ccccc3)cc1)nn2C1CCN(C2CN(C3CN(c4ccc5c(c4)C(=O)N(C4CCC(=O)NC4=O)C5=O)C3)C2)CC1.O=C(O)C(O)C(O)C(=O)O` [Compound 7, 5-[3-[3-[4-[4-amino-3-(4-phenoxyphenyl)pyrazolo[3,4-d]pyrimidin-1-yl]-1-piperidyl]azetidin-1-yl]azetidin-1-yl]-2-(2,6-dioxo-3-piperidyl)isoindoline-1,3-dione L-tartrate], in data set [2], the “improvement of solubility as compared with compound 1” value is “more than 15 times” and the solubility stood at 143 µg/mL. In addition, in data set [3], the “Having bioavailability or not” value is recorded as “Yes”, the “increase of oral exposure amount” value was “more than 2 times” and the AUC(0-t) came out at 95.5 ± 65 ng·h/mL.
Take `Nc1ncnc2c1c(-c1ccc(Oc3ccccc3)cc1)nn2C1CCN(C2CN(C3CN(c4ccc5c(c4)C(=O)N(C4CCC(=O)NC4=O)C5=O)C3)C2)CC1.O=C(O)C(=O)O` (centres unmarked) [Compound 9, 5-[3-[3-[4-[4-amino-3-(4-phenoxyphenyl)pyrazolo[3,4-d]pyrimidin-1-yl]-1-piperidyl]azetidin-1-yl]azetidin-1-yl]-2-(2,6-dioxo-3-piperidyl)isoindoline-1,3-dione oxalate]: in data set [4], the “Purity by HPLC, 0 day” value was found to be 98.67%; the chemical stability result was “relatively good chemical stability”; the “Purity by HPLC, 92.5% RH 30 days” value stood at 98.28%. In data set [2], the “improvement of solubility as compared with compound 1” value is recorded as “more than 15 times” and the solubility was determined as 346 µg/mL. For the same compound, in data set [3], the “Having bioavailability or not” value is on record as “Yes”, the “increase of oral exposure amount” value was “more than 2 times” and the AUC(0-t) came out at 79.4 ± 20 ng·h/mL.
Turning to `Nc1ncnc2c1c(-c1ccc(Oc3ccccc3)cc1)nn2C1CCN(C2CN(C3CN(c4ccc5c(c4)C(=O)N(C4CCC(=O)NC4=O)C5=O)C3)C2)CC1.O=C(O)/C=C\C(=O)O.O=C(O)/C=C\C(=O)O` (centres unmarked) [amorphous form of compound 3, 5-[3-[3-[4-[4-amino-3-(4-phenoxyphenyl)pyrazolo[3,4-d]pyrimidin-1-yl]-1-piperidyl]azetidin-1-yl]azetidin-1-yl]-2-(2,6-dioxo-3-piperidyl)isoindoline-1,3-dione dimaleate], the “stability of crystal form” value in data set [5] is reported as “relatively good stability”.
As for `Nc1ncnc2c1c(-c1ccc(Oc3ccccc3)cc1)nn2C1CCN(C2CN(C3CN(c4ccc5c(c4)C(=O)N(C4CCC(=O)NC4=O)C5=O)C3)C2)CC1.O=C(O)/C=C\C(=O)O.O=C(O)/C=C\C(=O)O` (centres unmarked) [crystal form I of compound 3, 5-[3-[3-[4-[4-amino-3-(4-phenoxyphenyl)pyrazolo[3,4-d]pyrimidin-1-yl]-1-piperidyl]azetidin-1-yl]azetidin-1-yl]-2-(2,6-dioxo-3-piperidyl)isoindoline-1,3-dione dimaleate], in data set [4], the “Purity by HPLC, 0 day” value was found to be 99.85%; the chemical stability entry is reported as “relatively good chemical stability”; the “Purity by HPLC, 92.5% RH 30 days” value was determined as 99.76%; the “Purity by HPLC, 40° C. 30 days” value is given as 99.74%. In addition, in data set [1], the “relative stability of crystal forms from competition experiments” value was “most stable crystal form”. Moreover, in data set [2], the “improvement of solubility as compared with compound 1” value is on record as “more than 15 times” and the solubility was 172 µg/mL. Besides, in data set [3], the “Having bioavailability or not” value was “Yes”, the “increase of oral exposure amount” value is “more than 2 times” and the AUC(0-t) was determined as 75.1 ± 50 ng·h/mL.
On to `Nc1ncnc2c1c(-c1ccc(Oc3ccccc3)cc1)nn2C1CCN(C2CN(C3CN(c4ccc5c(c4)C(=O)N(C4CCC(=O)NC4=O)C5=O)C3)C2)CC1` (centres unmarked) [crystal form III of compound 1, 5-[3-[3-[4-[4-amino-3-(4-phenoxyphenyl)pyrazolo[3,4-d]pyrimidin-1-yl]-1-piperidyl]azetidin-1-yl]azetidin-1-yl]-2-(2,6-dioxo-3-piperidyl)isoindoline-1,3-dione], for which, in data set [4] (setting [6]), the “Purity by HPLC, 0 day” value is reported as 99.41%; the “Purity by HPLC, 92.5% RH 30 days” value was determined as 99.30%; the “Purity by HPLC, 40° C. 30 days” value was 99.28%. Moreover, the “relative stability of crystal forms from competition experiments” value in data set [1] is “most stable crystal form”.
